Where no end group is shown, it is not given here.
Legend:
[1] = tested on: mice with allergy from OVA; assay: Allergy from OVA (chicken ovalbumin) model in mice; format: in vivo; conditions: FIG. 1B
Protocol: (§1) Evaluation of the efficacy of thymosin alpha 1 in two experimental models of allergy. A model consists of inducing an allergic state by administering chicken ovalbumin (OVA) in allergising conditions. The other consists of inducing the allergy from environmental allergens, and namely the spores of the fungus Aspergillus fumigatus.
The induction of the allergic pathology due to Aspergillus (called ABPA, Allergic Bronchopulmonary Aspergillosis) and to OVA was carried out as described in table 1 (Montagnoli C, Fallarino F, Gaziano R, Bozza S, Bellocchio S, Zelante T, Kurup W P, Pitzurra L, Puccetti P, Romani L. Immunity and tolerance to Aspergillus involve functionally distinct regulatory T cells and tryptophan catabolism. J. Immunol. 2006, 176:1712-1723). The mice received an intraperitoneal (i.p.) and subcutaneous (s.c.) injection of 5 μg of A. fumigatus culture filter (CCFA) dissolved in an incomplete Freund adjuvant (Sigma) followed by two consecutive intranasal injections (one week apart) of 20 μg CCFA. […] The mice were analysed for inflammation and allergy parameters a week later. […]
(§2) The collagen levels in the lungs were determined as described (Montagnoli C, Fallarino F, Gaziano R, Bozza S, Bellocchio S, Zelante T, Kurup WP, Pitzurra L, Puccetti P, Romani L. Immunity and tolerance to Aspergillus involve functionally distinct regulatory T cells and tryptophan catabolism. J. Immunol. 2006, 176:1712-1723). The concentrations of hydroxyproline were calculated by means of a standard hydroxyproline curve (zero to 100 μg/ml).
IgE determination in the serum. Total IgE in the serum samples was determined by enzyme-linked immunosorbent assay (Montagnoli C, Fallarino F, Gaziano R, Bozza S, Bellocchio S, Zelante T, Kurup WP, Ptzurra L, Puccetti P, Romani L. Immunity and tolerance to Aspergillus involve functionally distinct regulatory T cells and tryptophan catabolism. J. Immunol. 2006, 176:1712-1723 in the serum samples was measured by enzyme-linked immunosorbent assay). […]

[2] = tested on: mice with ABPA (allergy to Aspergillus fumigatus); assay: Allergic Bronchopulmonary Aspergillosis (ABPA) allergy model in mice; format: in vivo
Protocol: as §1
The induction of the allergic pathology due to Aspergillus (called ABPA, Allergic Bronchopulmonary Aspergillosis) and to OVA was carried out as described in table 1 (Montagnoli C, Fallarino F, Gaziano R, Bozza S, Bellocchio S, Zelante T, Kurup W P, Pitzurra L, Puccetti P, Romani L. Immunity and tolerance to Aspergillus involve functionally distinct regulatory T cells and tryptophan catabolism. J. Immunol. 2006, 176:1712-1723). The mice received an intraperitoneal (i.p.) and subcutaneous (s.c.) injection of 5 μg of A. fumigatus culture filter (CCFA) dissolved in an incomplete Freund adjuvant (Sigma) followed by two consecutive intranasal injections (one week apart) of 20 μg CCFA. One week after the last intranasal contact, the mice received 10^7 Aspergillus conidia intratracheally (i.t.) […]. The mice received 10 μg of OVA via i.p./s.c. on day 0, followed by two consecutive intranasal injections (one week apart) of 10 μg of OVA (chicken OVA grade VI; Sigma-Aldrich) together with 1 mg of Al(OH)3 (Alum Inject; Pierce, Rockford, Ill.) as adjuvant dissolved in a sterile saline solution. The mice were analysed for inflammation and allergy parameters a week later. For the histological analysis, sections (from 3 to 4 μm) of tissues immersed in paraffin were coloured with periodical Schiff acid (PAS) to evaluate the general morphology. The lung sections coloured with PAS were examined at 50, 200 and 400 enlargements to assess the “Globet” type cells typical of the allergy.
The differential total and total lung cell counts were carried out by colouring the lung of allergic mice with May-Grünwald reagents (Giemsa Sigma) before the analysis.
as §2
IgE determination in the serum. Total IgE in the serum samples was determined by enzyme-linked immunosorbent assay (Montagnoli C, Fallarino F, Gaziano R, Bozza S, Bellocchio S, Zelante T, Kurup WP, Ptzurra L, Puccetti P, Romani L. Immunity and tolerance to Aspergillus involve functionally distinct regulatory T cells and tryptophan catabolism. J. Immunol. 2006, 176:1712-1723 in the serum samples was measured by enzyme-linked immunosorbent assay).
Treatment with thymosin alpha 1. Tα1 (purchased from Sigma, St. Louis, Mo., USA; product no. T3410; molecular formula C129H215N33O55) and the scrambled peptide were supplied as sterile dried powders. The powders were reconstituted in sterile water (endotoxin levels were <0.03 pg/ml, by means of standard Limulus lysate assay). Tα1 was administered at a dosage of 50 and 200 microgrammes/kg i.p. according to the design reported in tables 1 and 2, both in the ABPA model and in the allergy from OVA. Mice controls received the scrambled peptide. In selected experiments, the mice were treated for comparison with a known agent that could improve the allergic symptomatology: oligodeoxynucleotide, containing non-methylated CpG (CpG) sequences.

[3] = Tα1 200 microgrammes i.p., both prophylaxis and therapy, vs control mice
[4] = FIG. 1A, Tα1 200 microgrammes i.p., both prophylaxis and therapy, vs control mice

For “thymosin alpha 1 (Ac-SDAAVDTSSEITTKDLKEKKEVVEEAEN; ends and bridges not checked; UniProt P06454 2-29, looked up) [Tα1, thymic peptide found in nature; purchased from Sigma, product no; T3410]”, the IgE antibodies [1, 3] was “drastic reduction”, the “local production of hydroxyproline” value [1, 3] was “drastic reduction” and the “reduction in allergic inflammatory parameters (hydroxyproline, IgE) at lower dosages” value ([1]; lower dosages (50 microgrammes/kg i.p.)) was “not at lower dosages”. The IgE antibodies [2, 4] was “drastic reduction”, the “local production of hydroxyproline” value [2, 4] was “drastic reduction” and the “reduction in allergic inflammatory parameters (hydroxyproline, IgE) at lower dosages” value ([2]; FIG. 1A, lower dosages (50 microgrammes/kg i.p.)) was “not at lower dosages”. The “efficacy in reducing the allergic inflammation parameters, Tα1 compared with CpG” value ([2]; FIG. 2, both in prophylaxis and therapy) was “comparable efficacy”, the “recruitment of monocytes/macrophages (pulmonary)” value ([2]; FIG. 3) was “did not have any appreciable effects” and the “recruitment of neutrophils (pulmonary)” value ([2]; FIG. 3) was “did not have any appreciable effects”. For the same substance, the “recruitment of eosinophils (pulmonary)” value ([2]; FIG. 3, both in prophylaxis and in therapy) was “drastic reduction”, the “hyperplasia of submucose glandular (Globet) cells in pulmonary sections” value ([2]; FIG. 4, histology (PAS)) was “decreased hyperplasia” and the “inflammatory infiltrate in pulmonary sections” value ([2]; FIG. 4, histology (PAS), prophylactic treatment) was “considerably reduced”.
